Data on four compounds can be found in US20240016795A1, “BROMODOMAIN INHIBITORS FOR ANDROGEN RECEPTOR-DRIVEN CANCERS” (FORMA Therapeutics, Inc., priority 2020, published 2024).

Molecules are shown by their SMILES. Where only a bound is given, the exact number is not on record here.

Data set [1] relates to TMPRSS2. Briefly: qPCR gene expression in AR-v7+ prostate cancer cells, TMPRSS2. Type of data set: cell-based. To be noted: 24 h. The protocol: (§1) AR-v7+ prostate cancer cells were exposed to compounds 1, 2, 3, or 4 for 24 h. RNA was extracted and gene expression was measured by qPCR using Taqman® primer-probes. GAPDH was used as a housekeeping gene.
For orientation: Quantitative PCR measures a nucleic acid by following its amplification.

A further data set relates to MFM223. The data set is described as follows: 10-day CellTiter-Glo antiproliferative assay, MFM223. Type of data set: cell-based. The note with it: Homo sapiens, MFM-223, 240 h, 10-day exposure, AR Low, ER −, Her2 −. The protocol: (§2) Breast cell lines were cultured according to the distributor's recommendations. The following day, cells were exposed to compounds up to 10 days. Cell viability was assessed using a CellTiter-Glo® assay (Promega) at the end of the incubation period. The growth inhibitory effect was assessed by the concentration inhibiting growth by 50% using a nonlinear regression equation and a variable slope (Graphpad Prism). The mRNA expression levels for the androgen receptor (HUGO: AR) was determined from the DepMap Portal database (release 19Q2).
A general note: In ATP-based viability assays light output follows the ATP content of the culture.

A further data set concerns CAMA1. Briefly: 10-day CellTiter-Glo antiproliferative assay, CAMA1. Type of data set: cell-based. To be noted: Homo sapiens, CAMA-1, 240 h, 10-day exposure, AR High, ER +, Her2 −. The method, then:
as §2

For another data set, the system named is AR-v7. The data set is described as follows: AR-v7 protein level by western blot in prostate cancer cells. Type of data set: cell-based. To be noted: androgen-independent (AR-v7+) prostate cancer cells, western blot. Background: In western blotting, separated proteins are transferred to a membrane and probed.
The next data set deals with AR. The data set is described as follows: AR protein level by western blot in prostate cancer cells. To be noted: androgen-independent and androgen-dependent prostate cancer cell lines, western blot. The class given is cell-based.
For a further data set, the system named is 22Rv1. The data set is described as follows: 10-day prostate cancer cell proliferation assay, 22Rv1. Type of data set: cell-based. The method, then: (§3) Prostate cell lines were obtained from ATCC or DSMZ and cultured according to the distributor's recommendations. Prostate cancer cells were plated and incubated overnight. […] Cell viability was assessed using a CellTiter-Glo® assay (Promega) after 10 days drug exposure. The growth inhibitory effect was assessed by the concentration inhibiting growth by 50% using a nonlinear regression equation and a variable slope (Graphpad Prism).

Data set [2] deals with AR-negative prostate cancer cell lines DU145 and PC-3. The data set is described as follows: 10-day proliferation assay, AR-negative prostate cancer cell lines. To be noted: 10-day assay. Type of data set: cell-based. The method, then:
Two AR-negative prostate cancer cell lines DU145 and PC-3 were also evaluated.
as §3

Another data set relates to KLK3. The data set is described as follows: qPCR gene expression in AR-v7+ prostate cancer cells, KLK3. The class given is cell-based. To be noted: 24 h. The protocol: as §1
Another data set deals with MDA-MB-231. Briefly: 10-day CellTiter-Glo antiproliferative assay, MDA-MB-231. The note with it: Homo sapiens, MDA-MB-231, 240 h, 10-day exposure, AR Low, ER −, Her2 −. The class given is cell-based. The protocol: as §2
The test system of the next data set is HCC1187. Briefly: 10-day CellTiter-Glo antiproliferative assay, HCC1187. Type of data set: cell-based. To be noted: Homo sapiens, HCC1187, 240 h, 10-day exposure, AR High, ER −, Her2 −. The protocol:
as §2

The subject of the next data set is VCaP. The data set is described as follows: 10-day prostate cancer cell proliferation assay, VCaP. Type of data set: cell-based. The protocol: as §3
The next data set concerns BT549. Briefly: 10-day CellTiter-Glo antiproliferative assay, BT549. Type of data set: cell-based. The note with it: Homo sapiens, BT-549, 240 h, 10-day exposure, AR Low, ER −, Her2 −. The method, then: as §2
The test system of a further data set is CAL148. The data set is described as follows: 10-day CellTiter-Glo antiproliferative assay, CAL148. The class given is cell-based. The note with it: Homo sapiens, CAL-148, 240 h, 10-day exposure, AR Low, ER −, Her2 −. The method, then:
as §2

The subject of another data set is MDA-MB-453. The data set is described as follows: 10-day CellTiter-Glo antiproliferative assay, MDA-MB-453. Type of data set: cell-based. To be noted: Homo sapiens, MDA-MB-453, 240 h; 10-day exposure, CellTiter-Glo; AR High, ER −, Her2 +/−; read-out: IC50 (μM), MDA-MB-453. The method, then: as §2
The next data set concerns MYC. The data set is described as follows: qPCR gene expression in AR-v7+ prostate cancer cells, MYC. Type of data set: cell-based. The note with it: 24 h. The protocol:
as §1

Another data set concerns XBP1. The data set is described as follows: Taqman gene expression in AR-positive breast cancer cells, XBP1. Type of data set: cell-based. The note with it: 24 hours, read-out: IC50, XBP1 mRNA. The method, then: (§4) AR-positive breast cancer cells were exposed to increasing concentrations of compounds for 24 hours. RNA was extracted and gene expression measured using Taqman® assays for TMPRSS2 and XBP1.

Another data set has as its system HCC1500. Briefly: 10-day CellTiter-Glo antiproliferative assay, HCC1500. The note with it: HCC1500, 240 h, 10-day exposure, AR High, ER +, Her2 −. Type of data set: cell-based. The method, then:
as §2

Data set [3] concerns TMPRSS2. Briefly: Taqman gene expression in AR-positive breast cancer cells, TMPRSS2. Type of data set: cell-based. To be noted: 24 hours, read-out: IC50, TMPRSS2 mRNA. The method, then:
as §4

Another data set deals with PC-3. The data set is described as follows: 10-day prostate cancer cell proliferation assay, PC-3. The class given is cell-based. To be noted: 10-day assay. The protocol:
as §3

A further data set deals with DU 145. Briefly: 10-day prostate cancer cell proliferation assay, DU 145. The class given is cell-based. The note with it: 10-day assay. The protocol:
as §3

Data set [4] relates to patient-derived xenograft (PDX) model of AR+ prostate cancer sensitive to enzalutamide. Briefly: Patient-derived xenograft of prostate cancer sensitive to enzalutamide. The class given is in vivo, NOG mice. To be noted: Compound 1 40 mg/kg/day, enzalutamide 20 mg/kg/day. The method, then: The antitumor activity was determined based by tumor volume during the course of the study.
Male NOG mice (6-8 weeks of age) were implanted with tumor fragments. When tumors reached an average tumor volume of 150-200 mm^3 animals were randomized into different cohort groups and dosing initiated on the same day (Day 0). Animals were weighed twice weekly.
[…] 11.

Data set [5] deals with patient-derived xenograft model of prostate cancer resistant to enzalutamide. Briefly: Patient-derived xenograft of prostate cancer resistant to enzalutamide. Type of data set: in vivo, NOG mice. To be noted: enzalutamide arm. The protocol:
Male NOG mice (6-8 weeks of age) were implanted with prostate PDX tumor fragments. When tumors reached an average tumor volume of 100-300 mm^3 animals were randomized into different cohort groups and dosing initiated on the same day (Day 0). […] Animals were weighed twice weekly. Tumors were measured twice weekly. The maximum tumor volume of control animals was 1500 mm^3.

In the next data set the test system is LNCaP. The data set is described as follows: 10-day prostate cancer cell proliferation assay, LNCaP. The class given is cell-based. To be noted: 10-day assay. The method, then: as §3
A further data set in a line: Solid form stability. The class given is physicochemical. The note with it: temperatures up to 40° C. and relative humidity of up to 75%.
Another data set can be described thus: Dynamic vapor sorption. The class given is physicochemical. To be noted: relative humidity of up to 80%. The text has this: Dynamic Vapor Sorption (DVS) data were collected with a SMS DVS Intrinsic from Surface Measurement Systems.

With `COC(=O)N1c2ccc3c(nc([C@H](O)c4ccccc4)n3[C@@H]3CCC[C@@H](C(=O)O)C3)c2CC[C@@H]1C` [Compound 2, (1R,3R)-3-((S)-2-((R)-hydroxy(phenyl)methyl)-6-(methoxycarbonyl)-7-methyl-6,7,8,9-tetrahydro-3H-imidazo[4,5-f]quinolin-3-yl)cyclohexane-1-carboxylic acid], the IC50 (commonly the concentration needed to halve the response being measured) in the data set on TMPRSS2 [1] is 50 to 100 nM; in the data set with MFM223 it was above 1 µM; in the data set with CAMA1, below 0.2 µM; in the data set on 22Rv1 (Homo sapiens, 22Rv1, 240 h, 10 days exposure, H857Y/H857Y, AR v7+, androgen-independent, read-out: IC50, 22Rv1), 500 to 1000 nM; with KLK3 it was 50 to 100 nM; in the data set with MDA-MB-231 it was above 1 µM. In addition, the IC50 is 0.2 to 0.5 µM in the data set on HCC1187; above 1000 nM in the data set on VCaP (Homo sapiens, VCaP, 240 h, 10 days exposure, WT, AR amplification, androgen-dependent); above 1 µM in the data set with BT549; above 1 µM in the data set on CAL148; 0.2 to 0.5 µM in the data set on MDA-MB-453; above 100 nM in the data set on MYC. The figures for the IC50 in the data set on XBP1, in the data set with HCC1500 and in the data set with TMPRSS2 [3] were below 100 nM, 0.5 to 1 µM and above 500 nM, respectively. For the same compound, the AR-v7 protein level entry in the data set on AR-v7 is “reduction of both full length and variant forms of the AR including AR-v7”. In addition, in the data set on AR, the AR protein level result is “reduction of both full length and variant forms of the AR”. Also, the “antiproliferative effect, AR-negative cell lines” value in data set [2] was “inactive”.
With `COC(=O)N1c2ccc3c(nc([C@H](O)c4cc(F)ccc4OC(F)F)n3[C@@H]3CCC[C@@H](C(=O)O)C3)c2CC[C@@H]1C` [Compound 3, (1R,3R)-3-((S)-2-((R)-(2-(difluoromethoxy)-5-fluorophenyl)(hydroxy)methyl)-6-(methoxycarbonyl)-7-methyl-6,7,8,9-tetrahydro-3H-imidazo[4,5-f]quinolin-3-yl)cyclohexane-1-carboxylic acid], the IC50 in the data set on TMPRSS2 [1] lay in the range of 10 to 50 nM; in the data set with KLK3, 10 to 50 nM; in the data set with MYC, 50 to 100 nM.
Take `CNC(=O)c1ccc(N2C(=S)N(c3ccc(C#N)c(C(F)(F)F)c3)C(=O)C2(C)C)cc1F` [Enzalutamide, reference compound]: the “anti-proliferative effect, PC3” value in the data set on PC-3 is “inactive”. Besides, in the data set with DU 145, the “anti-proliferative effect, DU145” value was “inactive”. For the same compound, the “anti-proliferative effect (IC50), 22Rv1” value with 22Rv1 (10-day assay) was “inactive”. For the same compound, in [4] (four days), the “AR target gene SPDEF expression in tumor” value is on record as “did not” and the H3K27Ac in tumor entry is recorded as “did not modulate H3K27Ac”. Besides, the “TGI at the end of study” value in data set [4] (start of dosing to day 59) is recorded as “comparable”. In data set [5], the TGI was 21%. Moreover, in the data set with VCaP (10-day assay), the “anti-proliferative effect (IC50), VCaP” value is listed as “active”. Also, the “anti-proliferative effect (IC50), LnCaP” value with LNCaP is listed as “active”.
Regarding `COC(=O)N1c2ccc3c(nc([C@H](O)c4cc(F)ccc4OC)n3[C@@H]3CCC[C@@H](C(=O)O)C3)c2CC[C@@H]1C.Cl` [type A hydrochloric acid addition salt, (1R,3R)-3-[(7S)-2-[(R)-(5-fluoro-2-methoxyphenyl)(hydroxy)methyl]-6-(methoxycarbonyl)-7-methyl-3H,6H,7H,8H,9H-imidazo[4,5-f]quinolin-3-yl]cyclohexane-1-carboxylic acid hydrochloride], in the data set “Solid form stability”, the solid form stability entry was “stable for at least two weeks”. For the same compound, the water uptake in the data set “Dynamic vapor sorption” is given as 6.3%.
